Patent publication US4460782A, “2-Ethoxymethyl and 2-methoxymethyl N-(3,5-dichlorophenyl) succinamides” (Consortium fur Elektrochemische Industrie GmbH, priority 1980, dated 1984)
Where two headings read alike, the source gives them in different places.

Key:
[1] = system: Botrytis cinerea; experiment: Grape juice test against Botrytis cinerea; type: cell-based; conditions: 10 ppm active substance
Method: 20 ml of a nutrient solution consisting of grape juice and distilled water in a weight ratio of 1:1 are poured into glass petri dishes and the active substances listed in Table 1 are added thereto in the concentrations indicated. Each test mixture is then inoculated with 50 μl of a suspension of Botrytis spores, prepared by washing the Botrytis spores from an agar culture with distilled water.
After incubation periods of 10 and 20 days, respectively, at 20° C., the extent of fungal development on the surface of the nutrient solution is assessed.
The effectiveness is calculated as a percentage, according to the following formula: [formula] […]

[2] = system: Alternaria solani; experiment: Spore germination test, Alternaria solani; type: cell-based; conditions: 500 ppm active substance, 48 hours at 20° C., vs untreated control, read-out: Fungitoxicity against fungi spore, Alternaria solani (effectiveness)
Method: (§1) 50 μl of a solution or suspension containing 500 ppm of the active substance are introduced into the hollow of hollow-ground slides, together with 50 μl of a spore suspension prepared by washing the spores from an agar culture with a nutrient solution containing, per liter, 10 g of sugar, 1 g of glycol, 1 g of KH2 PO4 and 0.5 g of MgSO4.
(§2) The slides are kept at 20° C. for 48 hours in a petri dish, the base of which is covered with a moistened filter paper.
(§3) The ratio of germinated and ungerminated spores is then compared with an untreated control sample.
(§4) The effectiveness is calculated as a percentage according to the following formula: [formula]
(§5) The test set-up and procedure are the same as those described in Example 5.

[3] = system: Botrytis cinerea; experiment: Spore germination test, Botrytis cinerea; type: cell-based; conditions: 500 ppm active substance, 48 hours at 20° C., vs untreated control, read-out: Fungitoxicity against fungi spore, Botrytis cinerea (effectiveness)
Method: as §1, §2, §3, §4, §5

[4] = system: Fusarium nivale; experiment: Spore germination test, Fusarium nivale; type: cell-based; conditions: Microdochium nivale; 500 ppm active substance; 48 hours at 20° C.; vs untreated control; read-out: Fungitoxicity against fungi spore, Fusarium nivale (effectiveness)
Method: as §1, §2, §3, §4, §5

[5] = system: Penicillium glaucum; experiment: Spore germination test, Penicillium glaucum; type: cell-based; conditions: 500 ppm active substance, 48 hours at 20° C., vs untreated control, read-out: Fungitoxicity against fungi spore, Penicillium glaucum (effectiveness)
Method: as §1, §2, §3, §4, §5

[6] = system: Septoria nodorum; experiment: Spore germination test, Septoria nodorum; type: cell-based; conditions: Parastagonospora nodorum; 500 ppm active substance; 48 hours at 20° C.; vs untreated control; read-out: Fungitoxicity against fungi spore, Septoria nodorum (effectiveness)
Method: as §1, §2, §3, §4, §5

[7] = system: Tilletia tritici; experiment: Seed dressing test against wheat bunt (Tilletia tritici); type: in vivo; conditions: Tilletia caries, read-out: % effectiveness (percentage germination inhibition)
Method: Healthy wheat seed is uniformly infected with spores of Tilletia tritici.The infected seed is subsequently dressed carefully with the active substances according to the invention, prepared in the form of dry dressings.
After being dressed, the wheat grains are placed in dishes of damp earth. Incubation takes place in a drying cupboard at from 14° to 17° C. After 48 hours, the spores adhering to the grains are removed by pressing the grains into loam/earth.
After incubation for a further eight days at from 14° to 17° C. in the drying cupboard, the ratio of germinated and ungerminated spores as, compared with an untreated control, is determined under a binocular microscope.
The action of the active substances according to the invention, is given as percentage germination inhibition. […]

[8] = 240 h, 10 days at 20° C., read-out: % effectiveness after 10 days
[9] = 480 h, 20 days at 20° C., read-out: % effectiveness after 20 days

O=C1CC(C2C=CCCC2)C(=O)N1c1cc(Cl)cc(Cl)c1 (centres unmarked) [2-(cyclohex-2-en-1-yl)-succinic acid N--(3,5-dichlorophenyl)imide, reference compound]
inhibition of growth at 10 ppm [1, 8]: 0%
inhibition of growth at 10 ppm [1, 9]: 0%
inhibition of growth at 500 ppm [2]: 30%
inhibition of growth at 500 ppm [3]: 25%
inhibition of growth at 500 ppm [4]: 0%
inhibition of growth at 500 ppm [5]: 0%
inhibition of growth at 500 ppm [6]: 30%
inhibition at 100 ppm [7]: 0%

CCC=CCSC1CC(=O)N(c2cc(Cl)cc(Cl)c2)C1=O (centres unmarked) [2-(pent-2-en-1-ylmercapto)-succinic acid N--(3,5-dichlorophenyl)imide, reference compound]
inhibition of growth at 10 ppm [1, 8]: 80%
inhibition of growth at 10 ppm [1, 9]: 45%
inhibition of growth at 500 ppm [2]: 20%
inhibition of growth at 500 ppm [3]: 20%
inhibition of growth at 500 ppm [4]: 20%
inhibition of growth at 500 ppm [5]: 10%
inhibition of growth at 500 ppm [6]: 10%
inhibition at 100 ppm [7]: 40%

CC(=O)OC1CC(=O)N(c2cc(Cl)cc(Cl)c2)C1=O (centres unmarked) [2-acetoxysuccinic acid N-(3,5-dichlorophenyl) imide]
inhibition of growth at 10 ppm [1, 8]: 80%
inhibition of growth at 10 ppm [1, 9]: 70%
inhibition of growth at 500 ppm [2]: 100%
inhibition of growth at 500 ppm [3]: 100%
inhibition of growth at 500 ppm [4]: 100%
inhibition of growth at 500 ppm [5]: 100%
inhibition of growth at 500 ppm [6]: 70%
inhibition at 100 ppm [7]: 100%

C=CCOC1CC(=O)N(c2cc(Cl)cc(Cl)c2)C1=O (centres unmarked) [2-allyloxysuccinic acid N-(3,5-dichlorophenyl)imide]
inhibition of growth at 10 ppm [1, 8]: 80%
inhibition of growth at 10 ppm [1, 9]: 80%
inhibition of growth at 500 ppm [2]: 80%
inhibition of growth at 500 ppm [3]: 100%
inhibition of growth at 500 ppm [4]: 70%
inhibition of growth at 500 ppm [5]: 80%
inhibition of growth at 500 ppm [6]: 80%
inhibition at 100 ppm [7]: 100%

CCOC1CC(=O)N(c2cc(Cl)cc(Cl)c2)C1=O (centres unmarked) [2-ethoxysuccinic acid N-(3,5-dichlorophenyl)imide]
inhibition of growth at 10 ppm [1, 8]: 100%
inhibition of growth at 10 ppm [1, 9]: 100%
inhibition of growth at 500 ppm [2]: 70%
inhibition of growth at 500 ppm [3]: 100%
inhibition of growth at 500 ppm [4]: 80%
inhibition of growth at 500 ppm [5]: 80%
inhibition at 100 ppm [7]: 90%

C=CCN1C(=O)CC(OC(=O)C(C)C)C1=O (centres unmarked) [2-isobutyroxysuccinic acid N--allylimide, 2-isobutyroxysuccinic acid N-allylimide]
inhibition at 100 ppm [7]: 80%

CC(C)OC1CC(=O)N(c2cc(Cl)cc(Cl)c2)C1=O (centres unmarked) [2-isopropoxysuccinic acid N-(3,5-dichlorophenyl)imide]
inhibition of growth at 10 ppm [1, 8]: 100%
inhibition of growth at 10 ppm [1, 9]: 100%
inhibition of growth at 500 ppm [2]: 70%
inhibition of growth at 500 ppm [3]: 100%
inhibition of growth at 500 ppm [4]: 50%
inhibition of growth at 500 ppm [5]: 100%
inhibition of growth at 500 ppm [6]: 50%
inhibition at 100 ppm [7]: 100%

COCC1CC(=O)N(c2cc(Cl)cc(Cl)c2)C1=O (centres unmarked) [2-methoxymethylsuccinic acid N-(3,5-dichlorophenyl)imide]
inhibition of growth at 10 ppm [1, 8]: 100%
inhibition of growth at 10 ppm [1, 9]: 100%
inhibition of growth at 500 ppm [2]: 100%
inhibition of growth at 500 ppm [3]: 100%
inhibition of growth at 500 ppm [4]: 100%
inhibition of growth at 500 ppm [5]: 100%
inhibition of growth at 500 ppm [6]: 70%
inhibition at 100 ppm [7]: 100%

COCC1CC(=O)N(c2cccc(Cl)c2)C1=O (centres unmarked) [2-methoxymethylsuccinic acid N-(3-chlorophenyl)imide]
inhibition of growth at 10 ppm [1, 8]: 90%
inhibition of growth at 10 ppm [1, 9]: 80%
inhibition at 100 ppm [7]: 80%

CCC(C)N1C(=O)CC(COC)C1=O (centres unmarked) [2-methoxymethylsuccinic acid N-(but-2-yl)imide]
inhibition at 100 ppm [7]: 80%

COC1CC(=O)N(c2cc(Cl)cc(Cl)c2)C1=O (centres unmarked) [2-methoxysuccinic acid N-(3,5-dichlorophenyl) imide]
inhibition of growth at 10 ppm [1, 8]: 100%
inhibition of growth at 10 ppm [1, 9]: 100%
inhibition of growth at 500 ppm [2]: 90%
inhibition of growth at 500 ppm [3]: 100%
inhibition of growth at 500 ppm [4]: 90%
inhibition of growth at 500 ppm [5]: 80%
inhibition at 100 ppm [7]: 95%

CCCc1ccc(N2C(=O)CC(OC)C2=O)cc1 (centres unmarked) [2-methoxysuccinic acid N--(4-propylphenyl)imide]
inhibition at 100 ppm [7]: 80%

CC(C)NC(=O)N1CC(=O)N(c2cc(Cl)cc(Cl)c2)C1=O [Rovral, 3-(3,5-dichlorophenyl)-1-isopropylcarbymoylhydantoin, reference compound]
inhibition of growth at 500 ppm [2]: 0%
inhibition of growth at 500 ppm [3]: 100%
inhibition of growth at 500 ppm [4]: 0%
inhibition of growth at 500 ppm [5]: 60%
inhibition of growth at 500 ppm [6]: 30%
inhibition at 100 ppm [7]: 75%
